Common to all, as to type: cell-based, human
In assay [1] the test system is Wnt-5a antisense HB2 cells. Put plainly: Adhesion of Wnt-5a antisense HB2 cells to collagen I (MTS). Conditions: for adhesion to collagen I, concentration-dependent analysis: 95% pure peptides, different concentrations. The protocol: (§1) The adhesion assay was carried out as previously described (12). Briefly, cells were serum-depleted for 16 h, detached with Versene and allowed to adhere as single cells to collagen I for 60 (MDA-MB-468) or 90 min (HB2) at 37° C. Non-adherent cells were removed by washing with PBS. The adherent cells were incubated with a (3-(4,5-dimethylthiazol-2-yl)-5-(3-carboxymethoxyphenyl)-2-(-4-sulfophenyl)-2H-tetrazolium, inner salt (MTS) dye reduction assay (Promega, Madison, Wis.) and absorbance was measured at 490 nm using a Fluostar microplate reader from BMG LabTechnologies (GmbH, Offenberg, Germany). In each experiment a single value was calculated based on the mean of adhesion from six separate wells after the adhesion to plastic alone had been subtracted. The CM used as a control in the adhesion assays was obtained from confluent Wnt-5a overexpressing HB2 cells (for experiments with Wnt-5a antisense HB2 cells) or Wnt-5a overexpressing MCF-7 cells (for MDA-MB-468 cells) stably transfected with a vector over-expressing Wnt5a. A collected CM was always used within three days.
To control the specificity of the CM, it was incubated with either the Wnt-5a or a control Ab for 45 min at 37° C. Subsequently 10 μl Protein A Sepharose was added for 30 min and after the protein A-bound antibodies were collected by centrifugation the remaining supernatants were used for the experiments.
Effects of crude peptides on adhesion of Wnt-5a antisense HB2 cells to collagen. (A) Single cells were allowed to adhere for 90 min in the absence or presence of the indicated crude peptides (100 μM). The amounts of adhesive cells were analyzed as described in the methods and the results are given as means±SEM of 7 separate experiments. (B) Adhesion of Wnt-5a antisense HB2 cells to collagen was analyzed after pre-treating the cells with an anti-[…]1-integrin Ab for 45 min before letting them adhere for 90 min in the absence or presence of peptides 171 or 175 (100 μM) or CM. The amounts of adhesive cells were analyzed as described in the methods and the results are given as means±SEM of 6 separate experiments (C) The diagram outlines a control of the presently used CM. The cells were allowed to adhere to collagen I-coated wells in the absence or presence of normal CM or Wnt-5a depleted CM. The amounts of adhesive cells were analyzed as described in the methods and the results are given as means±SEM of 6 separate experiments. Ns=not significant, * p<0.05, ** p<0.01 and *** p<0.001.
Effects of the selected and pure peptides on the ability of Wnt-5a antisense HB2 cells to adhere and migrate. (A-E) The ability of the cells to adhere to collagen type I-coated wells was analyzed as previously described for FIG. 2 in the absence or presence of different concentrations of the indicated peptide. (F) Effect of the indicated peptides on migration of Wnt-5a antisense HB2 in a transwell migration assay. The cells were allowed to migrate for 18 h in the absence or presence of 100 μM peptide or 0.4 μg/ml of recombinant Wnt5a. The data are given as means±SEM of 6-7 separate experiments, each performed in triplicate. * p<0.05 and ** p<0.01.

The next assay has as its system DDR1. In words: Collagen-induced DDR1 phosphorylation in Wnt-5a antisense HB2 cells (immunoprecipitation/Western blot). Conditions: crude peptide (approximately 65% pure) 100 μM; 90 min on collagen I. The protocol:
The phosphorylation status of DDR1 was analyzed as previously described (12), with the following modifications. After serum-depletion for 16 h, the cells were detached with Versene and then allowed to adhere to collagen I for 60 (MDA-MB-468) or 90 min (HB2) at 37° C. The experiments were terminated by lysing both adherent and non-adherent cells with a lysis buffer (50 mM Tris pH 7.4, 1% Triton-X, 5 mM EDTA, 5 mM EGTA, 50 mM NaCl, 10 μg/ml aprotinin, 2.5 mM benzamidine, 1 mM pefabloc, 1 μg/ml leupeptin and 1 mM Na3VO4). For immunoblotting an anti-DDR1 rabbit polyclonal Ab, sc-532 (Santa Cruz Biotech, Santa Cruz, Calif.) was used at a dilution of 1:10,000. The Ab recognizes DDR1b/c, which is essential because collagen only induces phosphorylation of the b or c isoforms of DDR1 in mammary epithelial cells (10).
Effects of crude peptides on collagen-induced DDR1 phosphorylation in Wnt-5a antisense HB2 cells. Single cells were allowed to adhere to collagen I-coated plates in the presence of the indicated crude peptide (100 μM). (A) Experiments performed in the presence of peptides 167-173. (B) Experiments performed in the presence of peptides 175-180. After 90 min the cells were lysed and DDR1 immunoprecipitated. Subsequently, the immunoprecipitates were subjected to Western blot analysis with an anti-phosphotyrosine Ab and then, after stripping, with an anti-DDR1 Ab to ascertain equal loading. The blots shown are representative of 3 separate experiments The diagrams show densitometric analysis of DDR1 phosphorylation, expressed as per cent of control.
Background: In western blotting, separated proteins are transferred to a membrane and probed.

For another assay, the system named is MDA-MB-468 cells. In words: Adhesion of MDA-MB-468 breast cancer cells to collagen I (MTS). The settings on record: for adhesion to collagen I, N-terminal deletion variants and formylation of peptide 175: 60 min; for MDA-MB-468 cell adhesion: control 15.3±3.6, n=6. The protocol: as §1
Peptide-induced effects on adhesion and DDR1 phosphorylation in MDA-MB-468 breast cancer cells. (A) Western blot analysis of Wnt-5a protein expression in Wnt-5a antisense and Wnt-5a over-expressing HB2 cells in comparison to MDA-MB-468 tumour cells. The blot is representative of 9 separate experiments. (B) Peptide-induced effects on MDA-MB-468 tumour cell adhesion. The cells were allowed to adhere to collagen type I-coated wells for 60 min in the absence or presence of 100 μM of the indicated peptides or CM. The amounts of adhesive cells were analyzed as described in the methods and the results are given as means±SEM of 8 separate experiments. (C) MDA-MB-468 cell adhesion to collagen I-coated wells in the absence or presence of peptide 175 or a peptide with same amino acid sequence except for a substitution of cysteine for alanine (175Ala) or CM. The amount of adherent cells was estimated as in panel A and expressed as means±SEM of 6 separate experiments, ns=not significant, ** p<0.01 and *** p<0.001. (D) Single MDA-MB-468 cells were allowed to adhere to collagen I-coated plates for 60 min in the absence or presence of the indicated peptides (100 μM), CM or recombinant Wnt-5a (0.8 µg/ml). DDR1 immunoprecipitates were Western blotted with first an anti-phosphotyrosine Ab and then after stripping with an anti-DDR1 Ab. The blots shown are representative of 6 separate experiments.
Effects of peptide 175 modifications on its ability to induce MDA-MB-468 tumour cell adhesion and migration. (A) The cells were allowed to adhere for 60 min to collagen-I coated wells in the absence or presence of peptide 175, three stepwise N-terminal deletion variants of peptide 175 or a formylated version of the tested hexapeptide derived from peptide 175. The amounts of adhesive cells were analyzed as described in the methods and the results are given as means±SEM of 6 separate experiments. (B and C) The cells were allowed to migrate for 18 h in the absence or presence of 1 or 10 μM of peptide 175 (B) or the formylated hexapeptide (C). The data are given as means±SEM of 6 separate experiments, each performed in triplicate. * p<0.05, p<0.01.

Ends that are not written are not given here.

“DARERERIHAKGSYE [peptide 168, Wnt-5a aa 183-197]”: in assay [1] (crude peptide (65% pure) 100 μM, 90 min), the “adhesion to collagen I” value is “did not have any effect on adhesion”. Besides, the DDR1 phosphorylation entry in the assay with DDR1 was “significant DDR1 phosphorylation”.

As for “EGMDGCEL (Human) [octapeptide, N-terminal deletion variant of peptide 175]”, the “adhesion to collagen I, N-terminal deletion variants and formylation of peptide 175” value in the assay with MDA-MB-468 cells is “still had adhesion-increasing effects”.

As for “LGTQGRLCNKTSEGMDGCEL (Human) [peptide 174, Wnt-5a aa 303-322]”, the “adhesion to collagen I, concentration-dependent analysis” value in assay [1] is “not as effective as the shorter peptide 175”.

As for “MDGCEL [hexapeptide, N-terminal deletion variant of peptide 175]”, the “adhesion to collagen I, N-terminal deletion variants and formylation of peptide 175” value in the assay on MDA-MB-468 cells is “no effect was detectable and none”.

Consider “VKAKKATEIVDQFVA [compound 170, Wnt-5a aa 350-364; the 3 cysteines exchanged to alanines]”, for which, in assay [1], the “adhesion to collagen I, concentration-dependent analysis” value is reported as “lost or less consistent”. For the same substance, the DDR1 phosphorylation entry with DDR1 is “significant DDR1 phosphorylation”.

Regarding fMet-Leu-Phe (MLF) [reference compound], the MDA-MB-468 cell adhesion in the assay with MDA-MB-468 cells is reported as 15.7±4.5; in the assay with MDA-MB-468 cells (listed as N-formyl-Met-Leu-Phe), “no effect”.

The values are drawn from patent US20080207521A1, “PEPTIDE LIGAND TO IMPAIR CANCER CELL MIGRATION” (priority 2005, published 2008).
